Measurements taken from US20210378193A1, “HAPLOID EMBRYOGENESIS” (STICHTING WAGENINGEN RESEARCH, priority 2013, published 2021).

Legend:
[1] = system: Brassica oleracea Gongylodes group (kohlrabi) microspores; assay: embryo production in Brassica oleracea Gongylodes group (kohlrabi) microspore culture; format: cell-based
Description: Microspores of different developmental stages were isolated by a standard method ([…] 1982, Journal of Plant Physiology 105:427-434).

[2] = system: B. napus microspore culture; assay: embryo yield in B. napus microspore culture; format: cell-based, Brassica napus
Description: Brassica napus L. DH12075 was used as a donor plant for microspore embryo culture. The B. napus plant growth and microspore isolation procedures were performed as described in Custers, J. B. M. (2003) “Microspore culture in rapeseed (Brassica napus L.)” in Doubled haploid production in crop plants: a manual, M. Maluszynski, K. J. Kasha, B. P. Forster, and I. Szarejko, eds (Dordrecht: Kluwer Academic Publishers), pp. 185-193. Flower buds for microspore culture were grouped by size (measured from the tip of the flower bud to the bottom of the sepal), ranging from 3.0 to 3.5 mm for DH4079 and from 2.6 to 4.0 mm for DH12075. The microspores were isolated and cultured in NLN-13 medium (see Lichter, R. (1982) […]. For induction of embryogenesis, microspores were cultured in the dark at 33° C. for 20 hours and subsequently transferred to 25° C. Non-induced microspore cultures were cultured continuously at 25° C. or 18° C. Trichostatin A (TSA, Sigma-Aldrich) was prepared in DMSO. Freshly isolated microspores were inoculated in a medium containing TSA or the same volume of DMSO as a control and cultured for 20 hours at the temperature indicated for each experiment. After this period, the cultures were centrifuged at 200 g for 3 min, resuspended in fresh NLN-13 medium without TSA, and transferred to 25° C.
The developmental fate of heat-stressed control cultures and cultures exposed to both heat-stress and TSA was followed by examining older cultures in more detail. […] Heat-stressed microspores and pollen were treated with a range of TSA concentrations, and the cultures examined after five and 15 days using DAPI staining to characterize the different multicellular structures that developed.
Microspores and immature pollen from different bud sizes were cultured in the presence of different concentrations of TSA compared with the equivalent volume of DMSO (control) at three temperatures: A-D=33° C., D-F=25° C., G-H=18° C. For each treatment, the samples are ranked from left to right along the z-axis according to the developmental stage of the microspores and pollen. […] The microspores and pollen were categorized as follows: mid-uninucleate microspore (white bars), late-uninucleate microspore (grey bars), and binucleate pollen (black bars) stages. […] The percentage of cells that divided gametopyhytically or sporophytically after five days of microspore culture at B=33° C., E=25° C., H=18° C. […] Dead microspores and pollen were not counted. […]

[3] = system: BABY BOOM (BBM); LEAFY COTYLEDON1 (LEC1); LEC2, and FUSCA3; assay: semi-quantitative RT-PCR of embryo-expressed genes in B. napus microspore culture; format: cell-based, Brassica napus; conditions: TSA-treated microspore cultures, regardless of culture temperature
Description: Total RNA isolation and on-column DNase digestion were performed using the InviTrap Spin Plant RNA Mini Kit (Invitek) according to the manufacturer's instructions. For semi-quantitative RT-PCR, 250 ng of total RNA was used for first-strand cDNA synthesis with the Taqman Reverse Transcription Reagents Kit (Applied Biosystems). The cycling parameters were: one cycle at 98° C. for 30 s, 30 cycles comprising 98° C. for 5 s, 60° C. for 30 s, followed by 72° C. for 1 min. The semi-quantitative RT-PCR primers are from Malik et al. (2007) Plant Physiol. 144: 134-154. The quantitative RT-PCR primers for microarray validation were designed based on oligonucleotide probes from Affymetrix GeneChip® Brassica Exon 1.0ST Array (see Malik et al. (2007) supra and Love, C. G., et al. (2010) PloS one 5: e12812). The Arabidopsis hda T-DNA insertion lines were genotyped using the PCR primers. […]
The cell clusters that are formed in heat-stressed, TSA-treated cultures resemble those found in control cultures that are only exposed to a heat-stress treatment. […] Semi-quantitative RT-PCR and GFP reporter lines were used to determine whether the different types of sporophytic structures that develop in control and TSA-treated cultures are embryogenic. […]

## CC(/C=C/C(=O)NO)=C\[C@@H](C)C(=O)c1ccc(N(C)C)cc1 [TSA, trichostatin A]
[1]; 0.5 μM TSA, not heat-shocked (25° C.), control sum 204
  general embryo production, sum of experiments: 841
[1]; 18 days, not in the control
  large embryos in a recalcitrant (non-responsive) genotype: Large embryos are present
[1]; early time point, not in the control culture
  embryogenic clusters in a recalcitrant (non-responsive) genotype: found at an early time point
[2]; culture at 25° C. (no heat stress), practically none in controls
  embryo production: Up to 0.2%
[2]; cultured at 18° C.
  development of histodifferentiated embryos: did not develop
[2]; heat-stressed cultures, 0.05 μM TSA
  embryo abundance relative to control cultures: up to five times more abundant than in control cultures
[2]; heat-stressed cultures, 0.5 μM TSA, 15 days, control up to 0.3%
  heart to cotyledon stage embryos: up to 0.05%
[3]
  expression of BBM, LEC1, LEC2 and FUSCA3: enhanced
